The values below come from patent US20100144759A1, “NOVEL N-(FLUORO-PYRAZINYL)-PHENYLSULFONAMIDES AS MODULATORS OF CHEMOKINE RECEPTOR CCR4” (AstraZeneca AB, priority 2005, published 2010).

Data set [1] deals with salmonella typhimurium LT2 strains TA98 and TA100. Nature of the data set: Metabolite testing: mutagenicity (Maron and Ames test). It counts as cell-based. The conditions noted are these: strains TA98 and TA100, with or without metabolic activation (rat liver S9). On the procedure:
5-Fluoro-3-methoxy-2-pyrazinamine and 6-fluoro-3-methoxy-2-pyrazinamine were tested for mutagenicity according to the test procedure of Maron and Ames described in Mutation Res. 1983; 113:173-215 using salmonella typhimurium LT2 strains TA98 and TA100. For metabolic activation a homogenate of liver from Aroclor 1254-treated rats (post-mitochondrial fraction (S9) purchased from Molecular Toxicology Inc., Boone, N.C., USA) was added to agar plates (without histidine) together with the test compound and the bacterial tester strains; the complete activation system employed was: phosphate buffer (0.1 mol/L, pH 7.4):100 mmol/L; magnesium chloride: 8 mmol/L; potassium chloride: 33 mmol/L; nicotinamide adenine dinucleotide phosphate: 4 mmol/L; glucose-6-phosphate:5 mmol/L; and rat liver homogenate (S9 fraction):10% v/v. The mean number of revertant colonies and sample standard deviation (from control plates) were calculated for each test group. A test compound was considered to be mutagenic when the following criteria were satisfied: i) the number of revertant colonies in any strain increased in the presence of one or more dose of the test compound, with or without metabolic activation ii) there was a dose-related increase in the number of revertant colonies, and iii) any increase was reproducible.

A short description of data set [2]: Measurement of plasma protein binding (equilibrium dialysis). To be noted: pooled human plasma, human plasma vs buffer pH 7.4, 37° C., 10 μM compound, read-out: % Bound Human Plasma (converted). Format: in vitro ADME. On the procedure:
The extent of plasma protein binding was determined via equilibrium dialysis of a compound between human plasma and aqueous buffer at 37° C. and determination of the concentration of compound in the plasma and buffer by HPLC-MS/MS.
Dialysis cells (molecular weight cut-off 5000) were prepared by rinsing with water followed by soaking in the dialysis buffer for a minimum of 1 hour. The dialysis buffer was isotonic buffered saline pH 7.4. Stock solutions of compound in dimethylsulphoxide were prepared at a concentration of 1 mM. Frozen pooled Human plasma was obtained from volunteers.
The stock DMSO solution of a compound was added to the plasma at a ratio of 10 μl of DMSO to each ml of plasma.
Dialysis cells were then prepared and one half of the cell filled with 750 μl of dialysis buffer and the other half of the cell with 750 μl of plasma solution of compound. Once prepared the cells were sealed and immersed in a water bath at 37° C. These cells were then rotated for a minimum of 4 hours to equilibrate.
After equilibration 500 μl of the buffer samples were removed and added to HPLC vials along with 100 μl of plasma (sample in 6-fold diluted plasma), and 100 μl of the plasma samples were removed and added to HPLC vials along with 500 μl of dialysis buffer (sample in 6-fold diluted plasma).
The samples were then analysed using HPLC-MS/MS.
The concentration of compound in the samples were determined using MassLynx version 4.0 software (produced by Waters/Micromass) that automatically calculated a calibration curve and the concentration of compound in the cells. Plasma protein binding was determined from the calibration curve as the percentage of compound bound in human plasma (% bound) using the following equation wherein the factor in the numerator accounts for the small dilution of the aqueous samples with plasma and the factor of 6 in the denominator serves to correct for the 6-fold dilution of the plasma samples with buffer;
(In general: Equilibrium dialysis compares concentrations on both sides of a semipermeable membrane.)

The target of data set [3] is T1, CCR4 (Homo sapiens, UniProt P51679).
T1 construct: host or cells: CHO-K1
T1 sequence (P51679 1-360): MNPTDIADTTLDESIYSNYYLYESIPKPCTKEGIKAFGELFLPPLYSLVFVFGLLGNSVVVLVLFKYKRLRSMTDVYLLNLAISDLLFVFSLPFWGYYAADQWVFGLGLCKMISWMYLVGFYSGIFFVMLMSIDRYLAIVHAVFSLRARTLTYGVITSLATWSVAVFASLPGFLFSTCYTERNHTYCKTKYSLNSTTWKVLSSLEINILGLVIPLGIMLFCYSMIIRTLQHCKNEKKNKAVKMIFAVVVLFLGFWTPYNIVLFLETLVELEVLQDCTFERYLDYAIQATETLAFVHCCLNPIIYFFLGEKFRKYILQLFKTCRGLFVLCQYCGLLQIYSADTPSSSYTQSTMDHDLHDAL
Nature of the data set: Predicted whole blood potency. To be noted: calculated: CCR4 pIC50+Log((100−% Bound)/100). On the procedure:
Predicted whole blood potency is a measure of the combined effects of CCR4 activity and plasma protein binding, and is calculated by the formula: Whole Blood Potency=CCR4 pIC50+Log((100−% Bound)/100).

Data set [4] addresses T1, CCR4. Nature of the data set: FMAT whole cell binding assay. The conditions noted are these: CHO-K1 cells expressing human recombinant CCR4; inhibition of FB-MDC binding; read-out: FMAT CCR4 pIC50 (converted). Here is the method:
CHO-K1 cells stably expressing the human recombinant CCR4 receptor (Euroscreen; Brussels, Belgium) were cultured in NUT.MIX.F—12(HAM) medium with glutamax-1, containing 10% (v/v) foetal bovine serum and 400 μg ml^−1 geneticin.
Cells were harvested at approximately 70% confluence by treatment with a cell dissociation buffer, and seeded at 5×10^3 cells/100 μl culture medium into wells of a black Costar clear-bottomed 96-well microtitre plates. Plates were incubated overnight at 37° C. in 5% CO2 and used the following day.
Before use, the cell plates were washed twice with 100 μl Hanks balanced salt solution (HBSS).
After two hours incubation in the dark at room temperature, the plates were analysed in an FMAT8100 reader (Applied Biosystems) to measure fluorescence that was associated with binding of FB-MDC to the cells.

`COc1nc(F)cnc1N` [5-fluoro-3-methoxy-2-pyrazinamine, 5-Fluoro-3-methoxy-2-pyrazinamine]: in data set [1], the mutagenicity test result is listed as “negative”.
For the compound `COc1nc(F)c(CO)nc1NS(=O)(=O)c1cccc(Cl)c1Cl` [Example 6, 2,3-Dichloro-N-[5-fluoro-6-(hydroxymethyl)-3-methoxypyrazin-2-yl]-benzenesulfonamide], the fraction unbound at 10 µM in data set [2] was 0.005. At CCR4 [3], the “Whole Blood Potency” value is 5.9. Besides, at CCR4 [4], the IC50 was 6.31 nM.
As for `COc1ncc(F)nc1N` [6-fluoro-3-methoxy-2-pyrazinamine], the mutagenicity test result in data set [1] was “negative”.
Regarding `COc1nc(F)cnc1NS(=O)(=O)c1cccc(F)c1Cl` [Example 1, 2-Chloro-3-fluoro-N-(5-fluoro-3-methoxypyrazin-2-yl)-benzenesulfonamide], in data set [2], the fraction unbound at 10 µM is 0.01. For the same compound, the “Whole Blood Potency” value at CCR4 [3] is listed as 6.3. For the same compound, the IC50 at CCR4 [4] is 5.01 nM.
On the same counts, the results for `COc1nc(F)cnc1NS(=O)(=O)c1cccc(Cl)c1Cl` [Example 2, 2,3-dichloro-N-(5-fluoro-3-methoxypyrazin-2-yl)-benzenesulfonamide] are 0.006, 6.3 and 3.16 nM.
For the compound `COc1nc(Br)cnc1NS(=O)(=O)c1cccc(Cl)c1Cl` [Ex. 8 WO03/059893, 2,3-dichloro-N-(5-bromo-3-methoxy-2-pyrazinyl)benzenesulphonamide, reference compound], the fraction unbound at 10 µM in data set [2] was 0.002. Moreover, at CCR4 [3], the “Whole Blood Potency” value is listed as 5.6. Further, the IC50 at CCR4 [4] is 5.01 nM.
`COc1ncc(F)nc1NS(=O)(=O)c1cccc(Cl)c1Cl` [Example 3, 2,3-Dichloro-N-(6-fluoro-3-methoxypyrazin-2-yl)-benzenesulfonamide]: in data set [2], the fraction unbound at 10 µM is 0.003. Moreover, the “Whole Blood Potency” value on CCR4 [3] is listed as 6.0. For the same compound, the IC50 on CCR4 [4] was 3.16 nM.
As for `COc1nccnc1NS(=O)(=O)c1cccc(Cl)c1Cl` [Ex. 30 WO03/059893, 2,3-dichloro-N-(3-methoxy-2-pyrazinyl)benzenesulphonamide, reference compound], the fraction unbound at 10 µM in data set [2] was 0.011. For the same compound, the “Whole Blood Potency” value at CCR4 [3] is listed as 5.7. Besides, the IC50 at CCR4 [4] was 20 nM.
On the same counts, the results for `COc1nc(F)cnc1NS(=O)(=O)c1cccc(Cl)c1C` [Example 7, 3-Chloro-N-(5-fluoro-3-methoxypyrazin-2-yl)-2-methyl-benzenesulfonamide] are 0.004, 6.0 and 3.98 nM.
On the same counts, the results for `COc1nc(Cl)cnc1NS(=O)(=O)c1cccc(Cl)c1Cl` [Ex. 5 WO03/059893, 2,3-dichloro-N-(5-chloro-3-methoxy-2-pyrazinyl)benzenesulphonamide, reference compound] are 0.002, 5.2 and 12.6 nM.
In the case of `COc1nc(CO)c(F)nc1NS(=O)(=O)c1cccc(Cl)c1Cl` [Example 4, 2,3-Dichloro-N-[6-fluoro-5-(hydroxymethyl)-3-methoxypyrazin-2-yl]-benzenesulfonamide], the fraction unbound at 10 µM in data set [2] was 0.013. The “Whole Blood Potency” value on CCR4 [3] was 5.9. Besides, the IC50 on CCR4 [4] was 15.8 nM.
Consider `COc1nc(F)cnc1NS(=O)(=O)c1cccc(Cl)c1F` [Example 5, 3-Chloro-2-fluoro-N-(5-fluoro-3-methoxypyrazin-2-yl)-benzenesulfonamide], for which, in data set [2], the fraction unbound at 10 µM is 0.011. Besides, on CCR4 [3], the “Whole Blood Potency” value is reported as 6.0. In addition, at CCR4 [4], the IC50 was 10 nM.
